Measurements published in paper PMC10174618, “Monoterpenoid aryl hydrocarbon receptor allosteric antagonists protect against ultraviolet skin damage in female mice” (Nature Communications, 2023).

Experiments:
Experiment in all cases: biochemical
Parameters in all cases: KINOMEscan scanMAX active site-directed competition binding assay, percent of control, 468 kinases
Details in all cases: competition binding, percent of control
[1] = target: SLK (Homo sapiens, UniProt Q9H2G2)
How it was run: (§1)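 Single-concentration screen (100 μM S-carvone) in a competition binding panel of 468 human kinases (KINOMEscan scanMAX); results given as percent of control, hit cutoff 35%.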

[2] = target: T1, DCAMKL2 (Homo sapiens, UniProt Q8N568)
T1 construct: gene DCLK2
How it was run: as §1

[3] = target: ROS1 (Homo sapiens, UniProt P08922)
How it was run: as §1

[4] = target: T2, CDK4-cyclinD1 (Homo sapiens, UniProt P11802)
T2 construct: cyclinD1
T2 sequence (P11802 whole entry): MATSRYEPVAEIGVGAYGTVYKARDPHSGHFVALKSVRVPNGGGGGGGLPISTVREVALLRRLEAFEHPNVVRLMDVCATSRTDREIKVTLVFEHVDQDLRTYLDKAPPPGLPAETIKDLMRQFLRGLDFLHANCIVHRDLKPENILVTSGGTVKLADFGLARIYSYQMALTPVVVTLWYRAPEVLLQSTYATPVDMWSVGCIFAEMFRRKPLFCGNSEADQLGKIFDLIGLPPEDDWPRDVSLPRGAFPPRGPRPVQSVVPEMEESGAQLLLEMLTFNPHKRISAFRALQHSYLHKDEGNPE
T2 sequence (P24385 whole entry partner): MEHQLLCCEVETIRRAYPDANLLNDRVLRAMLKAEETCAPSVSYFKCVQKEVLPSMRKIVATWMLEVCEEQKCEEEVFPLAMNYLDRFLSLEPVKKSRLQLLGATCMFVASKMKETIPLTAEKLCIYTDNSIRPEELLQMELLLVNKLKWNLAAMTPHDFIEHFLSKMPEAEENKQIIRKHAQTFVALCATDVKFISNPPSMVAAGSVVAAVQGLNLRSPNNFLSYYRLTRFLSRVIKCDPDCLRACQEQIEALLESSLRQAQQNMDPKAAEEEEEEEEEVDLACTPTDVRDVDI
How it was run: as §1

[5] = target: T3, MEK4 (Homo sapiens, UniProt P45985)
T3 construct: gene MAP2K4
How it was run: as §1

[6] = target: T4, ABL1(H396P)-nonphosphorylated (Homo sapiens, UniProt P00519, H396P)
T4 construct: nonphosphorylated
How it was run: as §1

[7] = target: RIPK2 (Homo sapiens, UniProt O43353)
Chain of RIPK2 (O43353 whole entry): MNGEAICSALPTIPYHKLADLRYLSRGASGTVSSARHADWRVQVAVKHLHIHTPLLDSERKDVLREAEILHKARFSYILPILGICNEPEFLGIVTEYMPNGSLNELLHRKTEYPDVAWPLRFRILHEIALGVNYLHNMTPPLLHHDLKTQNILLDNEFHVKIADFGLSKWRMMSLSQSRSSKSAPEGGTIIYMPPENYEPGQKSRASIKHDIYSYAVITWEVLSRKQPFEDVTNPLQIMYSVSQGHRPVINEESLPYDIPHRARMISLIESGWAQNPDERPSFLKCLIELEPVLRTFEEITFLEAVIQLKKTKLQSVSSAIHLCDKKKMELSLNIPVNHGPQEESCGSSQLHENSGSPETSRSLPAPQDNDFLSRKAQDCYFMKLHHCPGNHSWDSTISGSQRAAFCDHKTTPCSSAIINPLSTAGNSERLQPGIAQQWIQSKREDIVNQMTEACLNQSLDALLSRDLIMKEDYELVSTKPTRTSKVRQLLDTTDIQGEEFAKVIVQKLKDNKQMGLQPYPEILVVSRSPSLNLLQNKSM
How it was run: as §1

[8] = target: TNK1 (Homo sapiens, UniProt Q13470)
How it was run: as §1

[9] = target: ROCK2 (Homo sapiens, UniProt O75116)
Chain of ROCK2 (O75116 whole entry): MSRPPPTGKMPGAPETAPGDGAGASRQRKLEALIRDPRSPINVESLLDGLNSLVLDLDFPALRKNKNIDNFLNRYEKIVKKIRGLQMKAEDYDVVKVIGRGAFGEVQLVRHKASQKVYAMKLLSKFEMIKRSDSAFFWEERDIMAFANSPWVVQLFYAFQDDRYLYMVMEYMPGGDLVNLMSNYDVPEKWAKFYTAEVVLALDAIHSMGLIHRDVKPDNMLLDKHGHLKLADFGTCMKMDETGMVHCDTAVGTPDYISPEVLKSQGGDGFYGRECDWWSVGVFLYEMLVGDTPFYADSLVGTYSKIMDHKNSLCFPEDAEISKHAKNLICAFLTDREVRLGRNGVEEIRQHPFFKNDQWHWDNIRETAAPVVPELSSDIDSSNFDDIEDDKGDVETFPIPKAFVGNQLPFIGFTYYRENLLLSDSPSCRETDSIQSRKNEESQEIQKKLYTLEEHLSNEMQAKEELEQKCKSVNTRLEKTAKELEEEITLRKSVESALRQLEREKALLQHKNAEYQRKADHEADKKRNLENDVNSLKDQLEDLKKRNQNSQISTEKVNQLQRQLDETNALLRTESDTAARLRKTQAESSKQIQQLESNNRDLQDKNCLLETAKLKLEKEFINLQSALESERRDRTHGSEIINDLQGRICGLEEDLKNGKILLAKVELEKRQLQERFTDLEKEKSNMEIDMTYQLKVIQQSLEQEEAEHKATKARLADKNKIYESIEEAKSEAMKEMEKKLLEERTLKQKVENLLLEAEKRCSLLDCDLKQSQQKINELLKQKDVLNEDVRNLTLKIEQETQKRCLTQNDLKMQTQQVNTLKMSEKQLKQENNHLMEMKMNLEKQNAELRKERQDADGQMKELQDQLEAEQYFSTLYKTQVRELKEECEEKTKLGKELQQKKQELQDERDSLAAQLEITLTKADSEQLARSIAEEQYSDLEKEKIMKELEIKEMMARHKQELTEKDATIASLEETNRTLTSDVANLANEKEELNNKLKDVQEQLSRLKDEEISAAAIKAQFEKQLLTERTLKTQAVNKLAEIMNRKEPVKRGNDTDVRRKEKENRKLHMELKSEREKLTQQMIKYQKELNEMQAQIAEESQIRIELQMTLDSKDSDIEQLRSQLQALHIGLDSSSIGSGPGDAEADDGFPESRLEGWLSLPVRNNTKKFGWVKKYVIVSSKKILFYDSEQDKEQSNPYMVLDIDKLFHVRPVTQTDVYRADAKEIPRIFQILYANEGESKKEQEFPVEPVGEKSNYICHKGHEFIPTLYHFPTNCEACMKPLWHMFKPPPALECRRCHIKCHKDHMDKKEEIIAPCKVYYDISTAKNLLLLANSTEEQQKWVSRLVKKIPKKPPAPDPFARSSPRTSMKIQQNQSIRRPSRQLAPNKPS
How it was run: as §1

[10] = target: T5, PCTK2 (Homo sapiens, UniProt Q00537)
T5 construct: gene CDK17
How it was run: as §1

[11] = target: PAK4 (Homo sapiens, UniProt O96013)
How it was run: as §1

[12] = target: T6, NDR1 (Homo sapiens, UniProt Q15208)
T6 construct: gene STK38
How it was run: as §1

[13] = target: PIK3CA(E545A) (Homo sapiens, UniProt P42336, E545A)
How it was run: as §1

[14] = target: TNK2 (Homo sapiens, UniProt Q07912)
How it was run: as §1

[15] = target: PHKG2 (Homo sapiens, UniProt P15735)
Chain of PHKG2 (P15735 whole entry): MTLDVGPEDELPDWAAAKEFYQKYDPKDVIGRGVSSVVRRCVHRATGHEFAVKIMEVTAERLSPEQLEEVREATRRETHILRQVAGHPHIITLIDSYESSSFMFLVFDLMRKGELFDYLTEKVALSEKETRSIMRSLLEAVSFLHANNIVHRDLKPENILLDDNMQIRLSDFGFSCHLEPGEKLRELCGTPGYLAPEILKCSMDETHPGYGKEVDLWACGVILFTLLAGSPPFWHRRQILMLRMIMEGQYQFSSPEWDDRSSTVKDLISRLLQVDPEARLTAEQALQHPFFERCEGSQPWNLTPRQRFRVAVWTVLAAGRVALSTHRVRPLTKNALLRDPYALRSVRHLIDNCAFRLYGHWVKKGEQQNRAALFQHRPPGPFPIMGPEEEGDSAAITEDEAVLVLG
How it was run: as §1

[16] = target: TSSK3 (Homo sapiens, UniProt Q96PN8)
How it was run: as §1

[17] = target: T7, RSK2(Kin.Dom.2-C-terminal) (Homo sapiens, UniProt P51812)
T7 construct: gene RPS6KA3; Kin.Dom.2-C-terminal
How it was run: as §1

[18] = target: GAK (Homo sapiens, UniProt O14976)
Chain of GAK (O14976 whole entry): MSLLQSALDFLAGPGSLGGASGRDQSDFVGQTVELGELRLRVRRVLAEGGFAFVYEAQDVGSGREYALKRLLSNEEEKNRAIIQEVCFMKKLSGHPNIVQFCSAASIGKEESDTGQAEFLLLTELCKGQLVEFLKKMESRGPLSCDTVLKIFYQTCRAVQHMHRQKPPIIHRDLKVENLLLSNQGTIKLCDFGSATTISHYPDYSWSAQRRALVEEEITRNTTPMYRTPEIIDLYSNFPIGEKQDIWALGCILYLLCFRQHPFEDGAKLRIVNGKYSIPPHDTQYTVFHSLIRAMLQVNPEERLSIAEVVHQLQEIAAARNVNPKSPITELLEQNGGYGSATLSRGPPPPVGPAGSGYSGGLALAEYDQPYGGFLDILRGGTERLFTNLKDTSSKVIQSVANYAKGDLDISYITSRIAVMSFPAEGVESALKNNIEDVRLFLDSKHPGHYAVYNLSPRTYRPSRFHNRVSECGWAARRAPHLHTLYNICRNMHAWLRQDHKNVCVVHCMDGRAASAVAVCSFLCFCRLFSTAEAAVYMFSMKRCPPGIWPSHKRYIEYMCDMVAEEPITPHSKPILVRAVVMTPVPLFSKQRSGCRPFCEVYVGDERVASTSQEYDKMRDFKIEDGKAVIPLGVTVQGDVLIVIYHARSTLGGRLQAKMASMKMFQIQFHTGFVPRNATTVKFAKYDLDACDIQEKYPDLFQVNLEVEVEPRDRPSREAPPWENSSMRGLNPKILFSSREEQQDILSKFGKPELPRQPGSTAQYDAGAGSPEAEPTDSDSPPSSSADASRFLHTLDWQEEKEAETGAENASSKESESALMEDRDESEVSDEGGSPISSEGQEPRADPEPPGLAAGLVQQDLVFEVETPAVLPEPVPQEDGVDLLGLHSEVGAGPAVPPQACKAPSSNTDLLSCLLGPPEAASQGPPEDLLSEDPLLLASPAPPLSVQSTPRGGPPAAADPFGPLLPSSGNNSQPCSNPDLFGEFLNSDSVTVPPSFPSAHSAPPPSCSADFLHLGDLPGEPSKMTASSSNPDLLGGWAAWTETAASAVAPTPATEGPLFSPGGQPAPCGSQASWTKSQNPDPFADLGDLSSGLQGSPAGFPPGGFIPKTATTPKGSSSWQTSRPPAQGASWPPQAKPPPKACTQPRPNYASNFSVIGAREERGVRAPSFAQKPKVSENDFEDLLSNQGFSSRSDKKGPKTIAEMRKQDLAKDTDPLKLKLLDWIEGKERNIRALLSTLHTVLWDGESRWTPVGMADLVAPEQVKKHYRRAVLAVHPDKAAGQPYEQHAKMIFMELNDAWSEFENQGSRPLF
How it was run: as §1

[19] = target: T8, PIP5K2C (Homo sapiens, UniProt Q8TBX8)
T8 construct: gene PIP4K2C
T8 sequence (Q8TBX8 whole entry): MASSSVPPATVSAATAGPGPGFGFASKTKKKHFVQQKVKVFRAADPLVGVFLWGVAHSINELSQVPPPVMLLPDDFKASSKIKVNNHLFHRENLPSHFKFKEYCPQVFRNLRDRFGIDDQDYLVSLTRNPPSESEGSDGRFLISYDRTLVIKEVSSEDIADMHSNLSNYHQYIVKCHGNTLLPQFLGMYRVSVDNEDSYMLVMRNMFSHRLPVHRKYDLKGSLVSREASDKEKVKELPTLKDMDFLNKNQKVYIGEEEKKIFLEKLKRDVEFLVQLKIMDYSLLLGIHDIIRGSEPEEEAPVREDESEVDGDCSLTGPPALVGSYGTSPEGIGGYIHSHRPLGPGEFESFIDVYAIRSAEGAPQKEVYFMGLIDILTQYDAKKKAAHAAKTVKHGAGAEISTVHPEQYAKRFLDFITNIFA
How it was run: as §1

[20] = target: PAK6 (Homo sapiens, UniProt Q9NQU5)
How it was run: as §1

[21] = target: T9, p38-gamma (Homo sapiens, UniProt P53778)
T9 construct: gene MAPK12
T9 sequence (P53778 whole entry): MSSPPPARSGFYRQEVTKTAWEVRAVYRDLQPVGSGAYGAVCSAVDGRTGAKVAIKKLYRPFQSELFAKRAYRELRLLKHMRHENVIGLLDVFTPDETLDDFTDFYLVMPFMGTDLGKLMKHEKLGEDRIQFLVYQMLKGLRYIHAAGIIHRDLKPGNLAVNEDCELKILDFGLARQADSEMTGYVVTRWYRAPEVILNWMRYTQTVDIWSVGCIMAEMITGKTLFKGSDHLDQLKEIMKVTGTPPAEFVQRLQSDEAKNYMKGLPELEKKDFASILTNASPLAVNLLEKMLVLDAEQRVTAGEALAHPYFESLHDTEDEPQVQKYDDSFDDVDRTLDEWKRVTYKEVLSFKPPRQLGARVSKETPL
How it was run: as §1

remaining binding at 100 µM [1]: 78%
remaining binding at 100 µM [2]: 87%
remaining binding at 100 µM [3]: 83%
remaining binding at 100 µM [4]: 73%
remaining binding at 100 µM [5]: 74%
remaining binding at 100 µM [6]: 82%
remaining binding at 100 µM [7]: 97%
remaining binding at 100 µM [8]: 100%
remaining binding at 100 µM [9]: 66%
remaining binding at 100 µM [10]: 97%
remaining binding at 100 µM [11]: 74%
remaining binding at 100 µM [12]: 77%
remaining binding at 100 µM [13]: 70%
remaining binding at 100 µM [14]: 93%
remaining binding at 100 µM [15]: 84%
remaining binding at 100 µM [16]: 100%
remaining binding at 100 µM [17]: 67%
remaining binding at 100 µM [18]: 83%
remaining binding at 100 µM [19]: 88%
remaining binding at 100 µM [20]: 98%
remaining binding at 100 µM [21]: 72%
SMILES: C=C(C)[C@H]1CC=C(C)C(=O)C1 [S-carvone]
